Data taken from patent publication US20030069194A1, “Inhibition of viral replication by targeting RNA-DNA complexes” (priority 2001, published 2003).
Where a name gives a salt, the structure may show the parent alone.

Assays:
[1] = test system: 18C-18R duplex (RNase H substrate of HIV-1 RT); assay: RT-induced RNase H cleavage of the 18C-18R duplex (gel assay); type: biochemical; settings: for hierarchy of the extent of inhibition of RT-induced cleavage: 18C-18R duplex, aminoglycosides 312.5 μM, FIG. 1b, 1d; for inhibition of RT-induced cleavage at the primary site: FIG. 1c
Text: The first model oligonucleotide was a 18mer chimeric duplex (18C-18R). 18C-18R mimics a RNase H substrate during minus-strand strong-stop synthesis. (FIG. 1a). Mueller, U. et al. Crystal structure of an eight-base pair duplex containing the 3′-DNA RNA-5′ junction formed during initiation of minus-strand synthesis of HIV replication, Biochemistry 37,12005-12011 (1998). […] Note that RT cleaves the RNA strand (18R) opposite the chimeric RNA-DNA strand (18C) at three sites (FIGS. 1a, b). The primary cleavage site lies between base positions +1 and +2 (counting from the RNA-DNA junction in the 5′ direction on the cleaved RNA strand). Two other minor cleavage sites lie between positions +3 and +4 and between positions −1 and +1, with the former site being cleaved to a greater extent than the latter site. Götte, M. et al., HIV-1 Reverse transcriptase-associated RNase H cleaves RNA/RNA in arrested complexes: Implications for the mechanism by which RNase H discriminates between RNA/RNA and RNA/DNA, EMBO J. 14, 833-841 (1995).
Recombinant HIV-1 RT p66 was isolated from Escherichia coli JM 109. Pandey, V. N. et al, Role of methionine 184 of human immunodeficiency virus type-1 reverse transcriptase in the polymerase function and fidelity of DNA synthesis, Biochemistry 35, 2168-2179 (1996). The 18C and 18R oligonucleotides were purchased from Dharmacon Research, Inc. (Lafayette, Colo.). The 18D oligonucleotide was obtained from Integrated DNA Technologies, Inc. (Coralville, Iowa). Neomycin trisulfate trihydrate, the free base of tobramycin, paromomycin sulfate, and kanamycin B sulfate were obtained from Fluka, while kanamycin A monosulfate and ribostamycin sulfate dihydrate were obtained from Sigma.
The RNase H activity of RT was assayed in a 10 μl reaction mixture containing 10 mM PIPES (pH 6.0) and 5 mM MgCl2. Ten pmol of either 18C or 18R were ^32P-labeled at the 5′ end using T4 polynucleotide kinase. For the cleavage experiments, different aminoglycosides were mixed with 0.5 μM of target duplex. A small amount of RT, 0.1 μg, was then added to initiate the cleavage reaction. After incubation at 37° C. for 30 min, the reaction was stopped by addition of 3 M urea containing a mixture of bromophenol blue and xylene cyanol. Denaturation of the 18C-18R duplex required the addition of 5 M urea as well as heating at 95° C. for 5 min prior to gel loading. The cleavage products were resolved in a 10% polyacrylamide gel containing 8 M urea. The gels were subsequently analyzed using a phosphoimager (Molecular Dynamics, Inc.).

18C-18R duplex = assay: Isothermal titration calorimetry (ITC), 18C-18R duplex; type: binding, HIV-1; settings: for ΔHb (binding enthalpy): 18C-18R duplex, ITC at 25° C.
Protocol: Isothermal calorimetric measurements were performed at 25° C. on a MicroCal VP-ITC (MicroCal, Inc., Northampton, Mass.). In a typical experiment, 5 μl aliquots of 500 μM aminoglycoside were injected from a 250 μl rotating (430 RPM) syringe into an isothermal sample chamber containing 1.31 mL of either a 18C-18R solution that was 10 μM in duplex or a 18C-18D solution that was 15 μM in duplex. Each experiment of this type was accompanied by the corresponding control experiment in which 5 μL aliquots of 500 μM drug were injected into a solution of buffer alone. The duration of each injection was 5 seconds and the delay between injections was 240 seconds. The initial delay prior to the first injection was 60 seconds. Each injection generated a heat burst curve (μcal/sec vs. sec). The area under each curve was determined by integration [using the Origin version 5.0 software (MicroCal, Inc., Northampton, Mass.)] to obtain a measure of the heat associated with that injection. The heat associated with each drug-buffer injection was subtracted from the corresponding heat associated with each drug-duplex injection to yield the heat of drug binding for that injection. The calorimeter was calibrated both electronically and chemically. Pilch, D. S., Kirolos, M. A., Liu, X., Plum, G. E. & Breslauer, K. J. Berenil [1,3-bis-(4′-amidinophenyl)triazene] binding to DNA duplexes and to a RNA duplex: Evidence for both intercalative and minor groove binding properties, Biochemistry 34, 9962-9976 (1995). All duplex solutions were preheated for 5 minutes at 85° C. and then cooled to room temperature prior to their use in the ITC experiments. The buffer solutions for the ITC experiments contained 10 mM PIPES (pH 6.0) and 5 mM MgCl2.
Table 1 summarizes the apparent association constants at 25° C. that were calculated using equations (1)-(3) for neomycin and paromomycin binding to the 18C-18R and 18C-18D duplexes. The drug binding enthalpies (ΔHb) required for extrapolation of the binding constants at Tm to common reference temperature of 25° C. using equation (3) were determined using isothermal titration calorinietry (ITC). […] Each of the heat burst curves in FIG. 4 corresponds to a single drug injection, with the seven injections resulting in a final drug to duplex ratio (rdup) of either 0.83 (when 18C-18D served as the target duplex) or 1.25 (when 18C-18R served as the target duplex). The areas under these heat burst curves were determined by integration to yield the associated injection heats. For each titration, the seven injection heats were similar in magnitude, an observation consistent with all of the injected drug being bound by the host duplex. These injection heats were corrected by subtraction of the corresponding dilution heats derived from the injection of identical amounts of drug into buffer alone. The resulting corrected injection heats then were divided by the total concentration of injected drug and averaged to yield the ΔHb values listed in Table 1.

| Compound | hierarchy of the extent of inhibition of RT-induced cleavage [1] | ΔHb (binding enthalpy) (18C-18R duplex) [kcal/mol] | ΔHb (binding enthalpy) (18C-18R duplex; listed as Paromomycin) [kcal/mol] | inhibition of RT-induced cleavage at the primary site ([1]; neomycin to binding site ratio of 1 (stoichiometric concentration)) [%] | inhibition of RT-induced cleavage at the primary site ([1]; neomycin to binding site ratio of 5) | ΔHb (binding enthalpy) (18C-18R duplex; listed as Neomycin, trisulfate trihydrate) [kcal/mol] | ΔHb (binding enthalpy) (18C-18R duplex; trisulfate trihydrate) [kcal/mol] | binding stoichiometry (18C-18R duplex; ITC, 18C-18R) |
| --- | --- | --- | --- | --- | --- | --- | --- | --- |
| NC[C@@H]1O[C@H](O[C@H]2[C@@H](O)[C@H](O[C@@H]3[C@@H](O)[C@H](N)C[C@H](N)[C@H]3O[C@H]3O[C@H](CO)[C@@H](O)[C@H](O)[C@H]3N)O[C@@H]2CO)[C@H](N)[C@@H](O)[C@@H]1O [paromomycin, paromomycin sulfate] | neomycin>paromomycin>tobramycin>kanamycin B>ribostamycin>>kanamycin A | -4.5 | -4.5 ± 0.1 | – | – | – | – | – |
| Neomycin trisulfate trihydrate | neomycin>paromomycin>tobramycin>kanamycin B>ribostamycin>>kanamycin A | – | – | 80 | total inhibition | -8.8 ± 0.1 | -8.8 | approximately five |
